The source of these data is ChEMBL document CHEMBL2057116, “A novel tetrahydrobenzoangelicin with dark and photo biological activity” (Bioorg Med Chem, 2012).

Test [1] has as its system HeLa. The experiment in a line: Antiproliferative activity against human HeLa cells incubated for 1 hr with inhibitor followed by UV irradiation measured after 24 hrs by trypan blue dye assay. Particulars: light or radiation study. The class given is functional, cell-based.
Test [2] addresses DNA topoisomerase 2-alpha (Homo sapiens) (UniProt P11388). The experiment in a line: Inhibition of human recombinant topoisomerase 2alpha-mediated pBR322 DNA relaxation after 60 mins by agarose gel electrophoretic analysis.
Test [3] deals with A-431. The experiment in a line: Ratio of IC50 for 8-MOP to compound IC50 for human A431 cells incubated for 1 hr with inhibitor followed by UV irradiation measured after 24 hrs by trypan blue dye assay. The class given is functional.
The subject of test [4] is HeLa. The test can be described thus: Ratio of IC50 for 8-MOP to compound IC50 for human HeLa cells incubated for 1 hr with inhibitor followed by UV irradiation measured after 24 hrs by trypan blue dye assay. The test is classed as functional.
In test [5] the test system is A-431. The test can be described thus: Antiproliferative activity against human A431 cells incubated for 1 hr with inhibitor followed by UV irradiation measured after 24 hrs by trypan blue dye assay. The class given is functional, cell-based. Particulars: A-431, light or radiation study.
Test [6] deals with Nucleic Acid. The experiment in a line: Binding affinity to salmon testes DNA assessed as change in linear dichroism at compound to DNA ratio of 0.02 to 0.08 by circular dichroism analysis. The test is classed as nucleic-acid assay. Particulars: Salmonidae. A general note: CD spectra are sensitive to the conformation of chiral molecules.
For test [7], the system named is Nucleic Acid. The experiment in a line: Photoaddition to salmon testes DNA assessed as thymine-photoadduct formation by UV-Vis spectrophotometric analysis. The class given is nucleic-acid assay. Particulars: Salmonidae.
Test [8] concerns the target DNA topoisomerase 2-alpha (Homo sapiens) (UniProt P11388). The test can be described thus: Inhibition of human recombinant topoisomerase 2alpha-mediated pBR322 DNA relaxation at 5 uM after 60 mins by agarose gel electrophoretic analysis.
Test [9] has the same target. The experiment in a line: Inhibition of human recombinant topoisomerase 2alpha-mediated pBR322 DNA relaxation at 10 uM after 60 mins by agarose gel electrophoretic analysis.
The target is the same in test [10]. The test can be described thus: Inhibition of human recombinant topoisomerase 2alpha-mediated pBR322 DNA complex formation at 10 uM after 60 mins by agarose gel electrophoresis.
Test [11] concerns A-431. The test can be described thus: Antiproliferative activity against human A431 cells after 24 hrs by trypan blue dye assay. Particulars: A-431, 24 h. The test is classed as functional, cell-based.
The test system of test [12] is HeLa. The test can be described thus: Antiproliferative activity against human HeLa cells after 24 hrs by trypan blue dye assay. The class given is functional, cell-based.
Test [13] concerns the target DNA topoisomerase 2-alpha (Homo sapiens) (UniProt P11388). The experiment in a line: Inhibition of human recombinant topoisomerase 2alpha-mediated pBR322 DNA relaxation at 8 uM after 60 mins by agarose gel electrophoretic analysis.
Test [14] has the same target. The test can be described thus: Inhibition of human recombinant topoisomerase 2alpha-mediated pBR322 DNA complex formation at 8 uM after 60 mins by agarose gel electrophoresis.

pIC50: −log10 of the molar value. Active and inactive are the calls of the source. The rule behind the calls is not given here.

Sequence of DNA topoisomerase 2-alpha (Homo sapiens) (P11388 whole entry): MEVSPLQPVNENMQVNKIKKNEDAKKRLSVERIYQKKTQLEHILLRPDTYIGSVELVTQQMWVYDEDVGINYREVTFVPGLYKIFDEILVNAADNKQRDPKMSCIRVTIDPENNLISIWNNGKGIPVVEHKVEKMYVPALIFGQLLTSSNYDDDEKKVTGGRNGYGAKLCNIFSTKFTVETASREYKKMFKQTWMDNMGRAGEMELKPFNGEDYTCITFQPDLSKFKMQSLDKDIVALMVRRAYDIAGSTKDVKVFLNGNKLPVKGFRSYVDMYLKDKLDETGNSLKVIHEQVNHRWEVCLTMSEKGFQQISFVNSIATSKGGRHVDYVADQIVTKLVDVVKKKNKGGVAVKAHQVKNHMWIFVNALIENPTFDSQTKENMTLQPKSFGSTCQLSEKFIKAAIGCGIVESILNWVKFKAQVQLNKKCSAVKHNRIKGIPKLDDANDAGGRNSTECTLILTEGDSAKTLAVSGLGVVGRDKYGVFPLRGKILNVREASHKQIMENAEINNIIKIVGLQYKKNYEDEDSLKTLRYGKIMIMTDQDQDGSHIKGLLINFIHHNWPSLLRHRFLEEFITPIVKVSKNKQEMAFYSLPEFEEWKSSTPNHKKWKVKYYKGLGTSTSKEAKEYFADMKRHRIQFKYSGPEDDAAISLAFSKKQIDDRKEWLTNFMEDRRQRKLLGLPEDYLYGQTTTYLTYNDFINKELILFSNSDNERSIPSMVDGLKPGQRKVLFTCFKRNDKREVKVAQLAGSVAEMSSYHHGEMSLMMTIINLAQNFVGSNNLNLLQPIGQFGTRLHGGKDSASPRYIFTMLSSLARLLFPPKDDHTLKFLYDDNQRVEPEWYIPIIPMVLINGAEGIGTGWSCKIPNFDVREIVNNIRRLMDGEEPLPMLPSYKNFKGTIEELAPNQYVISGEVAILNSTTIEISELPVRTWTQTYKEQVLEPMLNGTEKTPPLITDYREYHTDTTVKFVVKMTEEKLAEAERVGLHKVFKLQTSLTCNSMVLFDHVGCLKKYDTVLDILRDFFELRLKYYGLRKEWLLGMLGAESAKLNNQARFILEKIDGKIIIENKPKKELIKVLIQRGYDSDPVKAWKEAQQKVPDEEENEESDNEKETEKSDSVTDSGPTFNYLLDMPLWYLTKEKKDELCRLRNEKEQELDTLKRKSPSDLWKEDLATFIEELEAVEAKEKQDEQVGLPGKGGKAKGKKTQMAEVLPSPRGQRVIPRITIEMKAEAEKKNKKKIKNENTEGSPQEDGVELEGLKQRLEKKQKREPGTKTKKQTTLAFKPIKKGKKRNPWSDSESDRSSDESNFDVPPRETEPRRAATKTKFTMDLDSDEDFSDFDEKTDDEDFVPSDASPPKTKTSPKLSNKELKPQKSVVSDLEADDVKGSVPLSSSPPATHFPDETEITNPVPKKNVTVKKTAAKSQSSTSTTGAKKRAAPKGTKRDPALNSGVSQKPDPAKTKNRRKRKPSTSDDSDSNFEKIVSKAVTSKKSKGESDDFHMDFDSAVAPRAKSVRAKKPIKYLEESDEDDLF

As usually defined, the pIC50 is −log10 of the IC50, conventionally taken in molar units. High values mean a small IC50, low ones a large IC50. Regarding `Cc1cc(=O)oc2c1c(OCCCN(C)C)cc1oc3c(c12)CCCC3`, the pIC50 in the test on HeLa [1] was 6.40; in the test on A-431 [5], 5.70; in the test with A-431 [11], 5.17; in the test on HeLa [12] it was 5.14. Also, the inhibition result in test [2] was “Dose-dependent effect”. For the same compound, the “Ratio IC50” value in the test on A-431 [3] and in the test on HeLa [4] was 5.9 in each case. Moreover, the outcome in the test with Nucleic Acid [6] and with Nucleic Acid [7] was Active. Moreover, the inhibition result in [8] and in test [9] was “Active” in each case. In addition, in [10], the inhibition result was “inactive”.

Turning to `COc1cc(NS(C)(=O)=O)ccc1Nc1c2ccccc2nc2ccccc12`, the inhibition entry in test [13] and in test [14] was “Active” in each case.

Regarding `Cc1cc(=O)oc2c1c(OCCCN(C)C)cc1oc3ccccc3c12`, the pIC50 with HeLa [1] is 5.85; in the test with A-431 [5], 5.38; with A-431 [11] it was less than 4.70; in the test with HeLa [12] it was less than 4.70. Also, the “Ratio IC50” value in the test on A-431 [3] and with HeLa [4] was 5.9 throughout.

Turning to `COc1c2occc2cc2ccc(=O)oc12` [METHOXSALEN], the negative logarithm of the IC50 (pIC50) in the test on A-431 [5] was 4.60; in the test on A-431 [11], less than 4.52; in the test with HeLa [12], less than 4.52.
